Test results reported in patent publication US8716292B2, “Riminophenazines with 2-(heteroaryl)amino substituents and their anti-microbial activity” (priority 2010, dated 2014).
In brackets after ≈: the same amount, converted by molar mass.

Tested on: Mycobacterium tuberculosis H37Rv strains
Test: In vitro assay for antimicrobial susceptibility (microplate Alamar blue MIC)
Assay type: cell-based
Details: Mycobacterium tuberculosis, H37RV, in vitro, Mycobacterium tuberculosis H37Rv strains; read-out: MIC (μg/mL) against H37Rv

**Q.** Which MIC does the source give for `Cc1ccc(-n2c3c/c(=N\CCN4CCOCC4)c(Nc4cccnc4C)cc-3nc3ccccc32)cc1` [TBI-324, 5-(4-Methylphenyl)-3-(2-morpholinoethyl)imino-2-(2-methyl-3-pyridyl)amino-3,5-dihydrophenazine] here?
**A.** 0.12 µg/mL (≈ 0.238 µM)

**Q.** `Cc1ccc(-n2c3c/c(=N\C4CCN(CC(C)C)CC4)c(Nc4cccnc4C)cc-3nc3ccccc32)cc1` [TBI-325, 5-(4-Methylphenyl)-3-(N-isobutyl-4-piperidyl)imino-2-(2-methyl-3-pyridyl)amino-3,5-dihydrophenazine] was tested. Which MIC did it give?
**A.** 0.056 µg/mL (≈ 0.106 µM)

**Q.** With `Cc1ccc(-n2c3c/c(=N\C4CCN(C)CC4)c(Nc4cccnc4C)cc-3nc3ccccc32)cc1` [TBI-326, 5-(4-Methylphenyl)-3-(N-methyl-4-piperidyl)imino-2-(2-methyl-3-pyridyl)amino-3,5-dihydrophenazine] as the compound, how does the MIC read?
**A.** 0.1 µg/mL (≈ 0.205 µM)

**Q.** How did the MIC turn out when `Cc1ccc(-n2c3c/c(=N\C(C)C)c(Nc4cncc(C)c4)cc-3nc3ccccc32)cc1` [TBI-327, 5-(4-Methylphenyl)-3-(1-methylethyl)imino-2-(5-methyl-3-pyridyl)amino-3,5-dihydrophenazine] was run?
**A.** 0.109 µg/mL (≈ 0.251 µM)

**Q.** With `Cc1ccc(-n2c3c/c(=N\C4CCOCC4)c(Nc4cncc(C)c4)cc-3nc3ccccc32)cc1` [TBI-328, 5-(4-Methylphenyl)-3-(4-tetrahydropyranyl)imino-2-(5-methyl-3-pyridyl)amino-3,5-dihydrophenazine] as the compound, how does the MIC read?
**A.** 0.037 µg/mL (≈ 0.0778 µM)

**Q.** For `Cc1ccc(-n2c3c/c(=N\C4CCCCC4)c(Nc4cncc(C)c4)cc-3nc3ccccc32)cc1` [TBI-329, 5-(4-Methylphenyl)-3-cyclohexylimino-2-(5-methyl-3-pyridyl)amino-3,5-dihydrophenazine], which MIC is on record?
**A.** 0.092 µg/mL (≈ 0.194 µM)

**Q.** Which MIC does the source give for `COC1CCC(/N=c2\cc3n(-c4ccc(C)cc4)c4ccccc4nc-3cc2Nc2cncc(C)c2)CC1` (stereo not drawn) [TBI-330, 5-(4-Methylphenyl)-3-(4-methoxycyclohexyl)imino-2-(5-methyl-3-pyridyl)amino-3,5-dihydrophenazine] here?
**A.** 0.035 µg/mL (≈ 0.0695 µM)

**Q.** With `COc1ncccc1Nc1cc2nc3ccccc3n(-c3ccc(C)cc3)c-2c/c1=N\C1CCCCC1` [TBI-331] as the compound, how does the MIC read?
**A.** 0.047 µg/mL (≈ 0.096 µM)

**Q.** Which MIC does the source give for `COc1ncccc1Nc1cc2nc3ccccc3n(-c3ccc(C)cc3)c-2c/c1=N\C1CCC(O)CC1` (stereo not drawn) [TBI-332, 5-(4-Methylphenyl)-3-(4-hydroxycyclohexyl)imino-2-(2-methoxy-3-pyridyl)amino-3,5-dihydrophenazine] here?
**A.** 0.294 µg/mL (≈ 0.581 µM)

**Q.** How did the MIC turn out when `Cc1ccc(-n2c3c/c(=N\C4CCCCC4)c(Nc4cccnc4)cc-3nc3ccccc32)cc1` [TBI-333, 5-(4-Methylphenyl)-3-cyclohexylimino-2-(3-pyridyl)amino-3,5-dihydrophenazine] was run?
**A.** 0.061 µg/mL (≈ 0.133 µM)

**Q.** For `Cc1ccc(-n2c3c/c(=N\C4CCC(O)CC4)c(Nc4ccc(C)nc4)cc-3nc3ccccc32)cc1` (stereo not drawn) [TBI-334, 5-(4-Methylphenyl)-3-(4-hydroxycyclohexyl)imino-2-(6-methyl-3-pyridyl)amino-3,5-dihydrophenazine], which MIC is on record?
**A.** 0.372 µg/mL (≈ 0.76 µM)

**Q.** How did the MIC turn out when `Cc1ccc(-n2c3c/c(=N\C4CCC(O)CC4)c(Nc4cccnc4C)cc-3nc3ccccc32)cc1` (stereo not drawn) [TBI-335, 5-(4-Methylphenyl)-3-(4-hydroxycyclohexyl)imino-2-(2-methyl-3-pyridyl)amino-3,5-dihydrophenazine] was run?
**A.** 0.336 µg/mL (≈ 0.686 µM)

**Q.** How did the MIC turn out when `CC(C)/N=c1\cc2n(-c3ccc(Cl)c(Cl)c3)c3ccccc3nc-2cc1Nc1cccnc1` [TBI-336, 5-(3,4-Dichlorophenyl)-3-(1-methylethyl)imino-2-(3-pyridyl)amino-3,5-dihydrophenazine] was run?
**A.** 0.055 µg/mL (≈ 0.116 µM)

**Q.** For `Cc1ccc(-n2c3c/c(=N\C4CCC(O)CC4)c(Nc4cncc(C)c4)cc-3nc3ccccc32)cc1` (stereo not drawn) [TBI-337, 5-(4-Methylphenyl)-3-(4-hydroxycyclohexyl)imino-2-(5-methyl-3-pyridyl)amino-3,5-dihydrophenazine], which MIC is on record?
**A.** 0.452 µg/mL (≈ 0.923 µM)

**Q.** Which MIC does the source give for `Cc1ccc(-n2c3c/c(=N\C4CCC(O)CC4)c(Nc4cccnc4)cc-3nc3ccccc32)cc1` (stereo not drawn) [TBI-338, 5-(4-Methylphenyl)-3-(4-hydroxycyclohexyl)imino-2-(3-pyridyl)amino-3,5-dihydrophenazine] here?
**A.** 0.5 µg/mL (≈ 1.05 µM)
